# *1 amine or outer side, *2 acyl side, *3 side chain or, on linkers, in order; H or OH if unused. Where a SMILES comes first, the peptide text is derived from it. Bridges are numbered along the chain shown (N, C = ends). [ ]: non-standard residue; d: D form. The star is where a group is joined. Ethylenediamine = C(CN[*:2])N[*:1]; Aad = N[C@@H](CCCC(=O)O)C(=O)O; NH(CH2)5NH2 = NCCCCCN*; NH(CH2)3NH2 = NCCCN*
# How the values were obtained:
# GP IIb IIIa = GP IIb IIIa (Homo sapiens, UniProt P05106+P08514); assay: Fibrinogen-GP IIb IIIa Receptor ELISA Binding Assay; set-up: from tissue; host or cells: outdated human platelets; conditions: purified human platelet GP IIb IIIa, fibrinogen-coated plates; read-out: ELISA IC50 Fibrinogen GPIIb IIIa
# Procedure: The method used is essentially that described in Nachman and Leung (J. Clin. Invest., 69:263-269 [1982]). The GP IIb IIIa is essentially purified as described in Fitzgerald et al., (Anal. Biochem. 151:169-177 [1985]).
# Outdated human platelets are washed 3 times with 10 mM tris-HCl, 150 mM NaCl (TBS), 1 mM EDTA, pH 7.5, and centrifuged at 2000×g to pellet cells. Cells are lysed in 5 pellet volumes of TBS, 1% Triton X-100, 1 mM Ca2 Cl2, and followed by centrifugation at 30,000×g. The supernatant fraction is collected and the supernatant is loaded onto a concanavalin-A column, previously equilibrated in TBS, 1 mM Ca2 Cl2, 0.1% Triton, 0.05% NaN3 and eluted with 0.2M α-methylmannoside. Fractions are pooled and loaded onto a heparin-agarose column. The flowthrough is collected and concentration on an Amicon YM 30 filter to a volume of approximately 5-10 mi. The concentrate is then applied to an S-300 column (500 ml) and 6 ml fractions are collected. The GP IIb IlIa containing fractions are collected, pooled, and stored at -80° C.
# The purification of fibrinogen is conducted essentially as described by Lipinska et al., (J. Lab. Clin. Med. 507, [1974]). Briefly, a 0.3% w/v solution of human fibrinogen (Kabi #5302) is dissolved in 150 mM NaCl. Saturated (NH4)2 SO4 is added dropwise with stirring to the fibrinogen solution to obtain about 16% saturation. The precipitate is spun down in appropriate size bottles at 2000×g. The supernatant is decanted and the precipitate resuspended in 150 mM NaCl (approximately 50% of the original volume). NH4 SO4 is again added dropwise to obtain 16% saturation. The suspension is spun down and the precipitate is resuspended in Tris-saline in a minimal volume (approximately 5% of the original volume). Any remaining insoluble material is spun down at 2000 rpm in a Sorval type centrifuge and the fibrinogen supernatant is decanted and dialyzed overnight at 4° C. against Tris-saline. Characterization of the fibrinogen is by the Bradford protein assay, SDS-PAGE, and/or Western blotting using well known standard procedures.
# Briefly, 96 well plates are coated (Type Nunc 1 Maxisorp™) with 10 μg/ml purified fibrinogen (100 μl/well), and allowed to stand overnight at 4° C. The plates are washed three times with PBS Tween (0.137M NaCl, 0.003M KCl, 0.008M Na2 HPO4, 0.001M KH2 PO4, pH 7.4 at room temperature, 0.05% Tween-20) and blocked for 1 to 2 hours at room temperature with 200 μl/well TNCNT (which is 0.5% BSA, 20mM Tris, pH 7.5 at room temperature, 120 mM NaCl, 0.2% NAN3, 2mM CaCl2, 0.05% Tween 20, 0.5% BSA [Calbiochem RIA grade or better]) on a plate shaker. The plates are again washed three times with PBS/Tween and then 50 μl of sample in TNCNT is added. The mixture is incubated for 15 minutes at room temperature on a plate shaker. The stock solution of purified GP IIb IIIa receptor from human platelets, (0.4-1.0 mg/ml GP IIb IIIa in 0.1% Triton X-100, 1 mM CaCl2, 20 mM Tris, 150 mM NaCl, 0.05% NaN3 in 0.3M N-acetyl glucosamine pH 7.5, stored at -70° C.), is reconstituted to about 40 μg/ml in TNCNT. Fifty μl of this diluted GP IIb IIIa is then added to each well and incubated on a plate shaker at room temperature. After one hour, the plates are washed four times with PBS/Tween and 100 μl of a polyclonal or monoclonal antibody specific for GP IIIa such as AP3 (1 μg/ml) (See e.g. Newman et al., Blood, 65:227-232 [1985]) in ELISA buffer (PBS, 0.5% BSA, 0.05% Tween 20, 0.01% Thimerasol) is added. After a one hour incubation at room temperature on a plate shaker, the samples are washed 4 times with PBS/Tween. One hundred μl of GAM-HRP (horse radish peroxidase conjugate of goat anti-mouse IgG [Pel-Freeze Cat. 715305-1] dissolved in ELISA buffer) previously diluted to 1:10,000 is then added and the samples are incubated 1 hour at room temperature on a plate shaker. […]
# Fibronectin Receptor = Fibronectin Receptor (Homo sapiens, UniProt P05556+P08648); assay: Human Fibronectin-Fibronectin Receptor ELISA Assay; type: binding; set-up: octylglucoside (OG) extracted human placenta; from tissue; host or cells: human placenta; conditions: human placenta fibronectin receptor, fibronectin-coated plates; read-out: ELISA IC50 Fibronectin FnR
# Procedure: Fibronectin receptor is purified according to the procedures of Pytela et al., (Methods Enzymol. 144:475 […]). Briefly, fibronectin receptor is purified employing an Arg-Gly-Asp affinity chromatography from (100 mM) octylglucoside (OG) extracted human placenta. The OG extract is filtered over Sepharose 6B GRGDSPK column. The column is washed three times with three column volumes of Tris-buffered saline (TBS) TBS, 1 mM CaCl2, and 25 mM OG. The receptor is eluted with TBS, 20 mM EDTA, and 25 mM Octyl thioglucoside, and is stored in 1 mM CaCl2, 1 mM MgCl2, at -80° C.
# Microtiter plates are coated with 110 μl human fibronectin (at 2 μg/ml) in TBS. Plates are washed three times with TBS containing 0.05% Tween 20. Test inhibitors are then added after washing in 10 microliter aliquots. The fibronectin receptor is added in 2-fold serial dilutions with TBS containing 20 mM octyl glucoside and 2 mM MnCl2. Plates are incubated three hours at room temperature, and washed with 200 μl TBS-Tween 20 buffer. 100 μl of affinity-purffied rabbit anti-human fibronectin receptor antibody is added to the wells and the plates are incubated two hours, washed twice with TBS-Tween and once with distilled water. Affinity-purified goat anti-rabbit IgG conjugated to horseradish peroxidase (100 μl) is added to each well followed by incubation for 60 minutes at room temperature. Plates are again washed twice with TBS-Tween and distilled water. 100 μl of substrate mixture (10 mg o-phenylenediamine in 25 ml 0.1M citrate-phosphate buffer, pH 5.0 6 μ30% H2 O2) is added to the plates and allowed to develop. The development process is stopped by adding 50 μl of 4N H2 SO4 to each well and read at […].
# Chain of GP IIb IIIa (P08514 32-887 limits assumed): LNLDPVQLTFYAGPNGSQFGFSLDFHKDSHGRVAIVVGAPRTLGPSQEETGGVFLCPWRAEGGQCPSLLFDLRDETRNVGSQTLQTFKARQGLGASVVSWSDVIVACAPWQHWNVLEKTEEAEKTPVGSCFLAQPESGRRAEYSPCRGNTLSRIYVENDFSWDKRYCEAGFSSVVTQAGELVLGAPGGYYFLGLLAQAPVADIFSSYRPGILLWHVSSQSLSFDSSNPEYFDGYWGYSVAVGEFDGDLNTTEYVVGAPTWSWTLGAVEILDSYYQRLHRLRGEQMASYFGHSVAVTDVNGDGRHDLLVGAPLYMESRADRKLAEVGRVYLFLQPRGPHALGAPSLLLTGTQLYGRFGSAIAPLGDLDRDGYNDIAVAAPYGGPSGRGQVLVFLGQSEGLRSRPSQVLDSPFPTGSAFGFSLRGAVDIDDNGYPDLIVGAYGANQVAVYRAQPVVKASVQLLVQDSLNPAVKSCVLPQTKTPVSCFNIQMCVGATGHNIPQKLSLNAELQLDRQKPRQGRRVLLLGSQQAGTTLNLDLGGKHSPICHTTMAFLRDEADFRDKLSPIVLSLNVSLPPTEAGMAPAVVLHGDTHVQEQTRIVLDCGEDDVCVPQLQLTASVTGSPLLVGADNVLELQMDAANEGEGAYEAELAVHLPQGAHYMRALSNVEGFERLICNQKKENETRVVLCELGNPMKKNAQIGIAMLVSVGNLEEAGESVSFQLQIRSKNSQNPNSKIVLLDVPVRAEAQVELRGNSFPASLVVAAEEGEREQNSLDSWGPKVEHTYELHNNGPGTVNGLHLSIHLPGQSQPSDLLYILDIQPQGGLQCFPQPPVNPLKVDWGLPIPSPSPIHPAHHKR
# Chain of GP IIb IIIa (P08514 891-1039 partner limits assumed): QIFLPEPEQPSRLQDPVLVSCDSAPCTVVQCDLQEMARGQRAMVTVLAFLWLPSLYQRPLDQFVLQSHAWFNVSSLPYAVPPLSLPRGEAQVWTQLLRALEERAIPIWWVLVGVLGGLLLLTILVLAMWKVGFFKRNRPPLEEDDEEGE
# Chain of GP IIb IIIa (P05106 27-788): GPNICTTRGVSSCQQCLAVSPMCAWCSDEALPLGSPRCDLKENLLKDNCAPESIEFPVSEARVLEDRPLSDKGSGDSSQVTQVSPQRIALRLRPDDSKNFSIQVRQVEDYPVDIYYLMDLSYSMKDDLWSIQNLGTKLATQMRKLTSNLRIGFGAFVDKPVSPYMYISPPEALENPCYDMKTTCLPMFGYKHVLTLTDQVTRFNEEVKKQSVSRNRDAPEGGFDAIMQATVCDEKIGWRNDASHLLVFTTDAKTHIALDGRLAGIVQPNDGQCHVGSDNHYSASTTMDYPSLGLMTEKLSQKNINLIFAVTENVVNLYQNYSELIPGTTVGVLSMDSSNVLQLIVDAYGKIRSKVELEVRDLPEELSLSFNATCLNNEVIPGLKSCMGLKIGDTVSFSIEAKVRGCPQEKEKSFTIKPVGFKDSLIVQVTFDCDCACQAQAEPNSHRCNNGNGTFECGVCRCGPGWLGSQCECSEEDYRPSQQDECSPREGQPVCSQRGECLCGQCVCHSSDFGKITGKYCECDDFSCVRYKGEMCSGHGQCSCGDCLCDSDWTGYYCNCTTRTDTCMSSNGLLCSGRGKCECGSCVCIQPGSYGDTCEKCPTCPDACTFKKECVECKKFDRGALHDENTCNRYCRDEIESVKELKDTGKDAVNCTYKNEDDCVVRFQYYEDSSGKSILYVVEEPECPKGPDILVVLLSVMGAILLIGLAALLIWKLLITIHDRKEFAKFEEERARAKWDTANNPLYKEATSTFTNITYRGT
# Chain of Fibronectin Receptor (P08648 42-894 limits assumed): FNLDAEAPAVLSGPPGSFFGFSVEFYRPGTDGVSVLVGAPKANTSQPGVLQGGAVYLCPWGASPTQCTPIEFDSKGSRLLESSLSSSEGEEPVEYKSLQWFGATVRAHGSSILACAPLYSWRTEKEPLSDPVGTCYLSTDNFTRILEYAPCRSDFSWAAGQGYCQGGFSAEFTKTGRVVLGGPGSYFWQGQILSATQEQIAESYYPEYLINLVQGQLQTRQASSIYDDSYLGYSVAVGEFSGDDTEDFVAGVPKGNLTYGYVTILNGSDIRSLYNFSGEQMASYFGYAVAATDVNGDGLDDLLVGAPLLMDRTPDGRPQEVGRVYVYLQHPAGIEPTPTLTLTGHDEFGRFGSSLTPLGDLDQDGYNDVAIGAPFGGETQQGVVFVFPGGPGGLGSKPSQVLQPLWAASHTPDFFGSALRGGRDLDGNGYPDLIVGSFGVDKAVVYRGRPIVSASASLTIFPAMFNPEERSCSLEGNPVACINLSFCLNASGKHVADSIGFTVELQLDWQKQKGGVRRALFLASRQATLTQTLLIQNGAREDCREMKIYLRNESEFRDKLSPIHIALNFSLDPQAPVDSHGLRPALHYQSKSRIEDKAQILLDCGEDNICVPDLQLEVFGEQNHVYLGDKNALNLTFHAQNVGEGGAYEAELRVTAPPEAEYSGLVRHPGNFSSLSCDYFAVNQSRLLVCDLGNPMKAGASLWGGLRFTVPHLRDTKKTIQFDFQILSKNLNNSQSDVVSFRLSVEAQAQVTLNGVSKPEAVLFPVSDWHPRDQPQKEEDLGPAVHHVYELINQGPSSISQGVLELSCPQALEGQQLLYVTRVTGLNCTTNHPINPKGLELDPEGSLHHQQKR
# Chain of Fibronectin Receptor (P08648 895-1049 partner limits assumed): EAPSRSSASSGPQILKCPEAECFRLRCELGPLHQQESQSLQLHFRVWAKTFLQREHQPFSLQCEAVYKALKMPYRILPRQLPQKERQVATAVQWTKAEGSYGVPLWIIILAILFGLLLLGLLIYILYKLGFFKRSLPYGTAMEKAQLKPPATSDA
# Chain of Fibronectin Receptor (P05556 21-798): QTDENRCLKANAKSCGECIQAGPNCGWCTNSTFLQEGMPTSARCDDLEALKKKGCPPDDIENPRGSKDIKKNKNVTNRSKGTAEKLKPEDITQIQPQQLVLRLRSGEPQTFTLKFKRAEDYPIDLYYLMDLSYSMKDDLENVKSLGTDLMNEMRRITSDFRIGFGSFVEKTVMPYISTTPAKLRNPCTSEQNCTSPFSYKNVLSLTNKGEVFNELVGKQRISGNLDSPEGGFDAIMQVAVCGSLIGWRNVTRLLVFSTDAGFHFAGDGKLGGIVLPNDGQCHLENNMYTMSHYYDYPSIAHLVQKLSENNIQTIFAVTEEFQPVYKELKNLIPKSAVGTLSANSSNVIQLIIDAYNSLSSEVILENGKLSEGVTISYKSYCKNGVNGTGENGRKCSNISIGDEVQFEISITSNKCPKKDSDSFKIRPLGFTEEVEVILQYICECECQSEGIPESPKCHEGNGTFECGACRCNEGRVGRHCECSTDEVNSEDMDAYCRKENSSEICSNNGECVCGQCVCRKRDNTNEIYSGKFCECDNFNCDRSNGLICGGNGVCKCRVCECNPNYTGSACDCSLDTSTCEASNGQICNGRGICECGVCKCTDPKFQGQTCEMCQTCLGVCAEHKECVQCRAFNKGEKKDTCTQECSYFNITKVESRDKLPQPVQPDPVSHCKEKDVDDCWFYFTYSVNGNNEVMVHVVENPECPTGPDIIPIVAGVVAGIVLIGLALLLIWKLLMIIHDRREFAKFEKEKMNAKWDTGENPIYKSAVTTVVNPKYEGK
SMILES,IC50 (GP IIb IIIa) [nM],IC50 (Fibronectin Receptor) [nM]
"N=C(N)NCCC[C@@H]1NC(=O)[C@@H](Cc2ccc(O)cc2)NC(=O)CSC[C@@H](C(=O)NCCCCCN)NC(=O)[C@H](CC(=O)O)NC(=O)CNC1=O [8/13, cyclo-S-acetyl-dTyr--Arg--Gly--Asp--Cys--NH--X (X = pentylamine)] ({CH2CO}-[dY]RGDC-{NH(CH2)5NH2}; thioether N-5)",9,473
"N=C(N)NCCC[C@@H]1NC(=O)[C@@H](Cc2ccc(O)cc2)NC(=O)CSC[C@@H](C(=O)NCCCN)NC(=O)[C@H](CC(=O)O)NC(=O)CNC1=O [8/22, cyclo-S-acetyl-dTyr--Arg--Gly--Asp--Cys--NH--X (X = propyl amine)] ({CH2CO}-[dY]RGDC-{NH(CH2)3NH2}; thioether N-5)",15,176
"N=C(N)NCCC[C@@H]1NC(=O)[C@@H](Cc2ccc(O)cc2)NC(=O)CSC[C@@H](C(=O)NCCN)NC(=O)[C@H](CC(=O)O)NC(=O)CNC1=O [8/23, cyclo-S-acetyl-dTyr--Arg--Gly--Asp--Cys--NH--X (X = ethyl amine)] ({CH2CO}-[dY]RGDC-Ethylenediamine; thioether N-5)",14,61
"N=C(N)NCCC[C@H](NC(=O)[C@@H]1CCCC(=O)N[C@H](Cc2ccc(O)cc2)C(=O)N[C@@H](CCCNC(=N)N)C(=O)NCC(=O)N[C@@H](CC(=O)O)C(=O)N1)C(N)=O [10/19, cyclo(1-5)dTyr--Arg--Gly--Asp--L-α-aminoadipic acid-Arg--NH2] ([dY]RGD[Aad]R-NH2; lactam N-5)",8.9,745
"N=C(N)NCCC[C@@H]1NC(=O)[C@@H](Cc2ccc(O)cc2)NC(=O)CCC[C@@H](C(=O)N[C@@H](CCCCN)C(N)=O)NC(=O)[C@H](CC(=O)O)NC(=O)CNC1=O [10/20, cyclo(1-5)dTyr--Arg--Gly--Asp--L-α-aminoadipic acid-Lys--NH2] ([dY]RGD[Aad]K-NH2; lactam N-5)",12.4,2310

# Source: patent US5493007A, “Platelet aggregation inhibitors having high specificity for GPIIBIIIA” (Genentech, Inc., priority 1994, dated 1996)
